According to ChEMBL document CHEMBL4196062, “Trypanothione reductase inhibition and anti-leishmanial activity of all-hydrocarbon stapled α-helical peptides with improved proteolytic stability” (Eur J Med Chem, 2018):
Calls of active or inactive are those of the source. No cut-off for these calls is given here. Positions of bridges follow the written chain, without caps; N, C: chain ends. Non-standard residues stand in square brackets, D forms with d. Residues, ends and D or L forms follow the SMILES beside them. *: point of attachment. X1 = O=C(O)c1ccc(NC(=S)*)cc1-c1c2ccc(=O)cc-2oc2cc(O)ccc12; R5 = C=CCCC[C@@](C)(N)C(=O)O; S5 = C=CCCC[C@](C)(N)C(=O)O; Nle = CCCC[C@H](N)C(=O)O; AEEA = NCCOCCOCC(=O)O

Experiments:
Trypanothione reductase [1] = molecular target: T1, Trypanothione reductase (Leishmania infantum, UniProt A4HSF7); experiment: Inhibition of dimerization of HIS/FLAG tagged Leishmania infantum trypanothione reductase incubated for 16 hrs by ELISA
T1 sequence (A4HSF7 whole entry): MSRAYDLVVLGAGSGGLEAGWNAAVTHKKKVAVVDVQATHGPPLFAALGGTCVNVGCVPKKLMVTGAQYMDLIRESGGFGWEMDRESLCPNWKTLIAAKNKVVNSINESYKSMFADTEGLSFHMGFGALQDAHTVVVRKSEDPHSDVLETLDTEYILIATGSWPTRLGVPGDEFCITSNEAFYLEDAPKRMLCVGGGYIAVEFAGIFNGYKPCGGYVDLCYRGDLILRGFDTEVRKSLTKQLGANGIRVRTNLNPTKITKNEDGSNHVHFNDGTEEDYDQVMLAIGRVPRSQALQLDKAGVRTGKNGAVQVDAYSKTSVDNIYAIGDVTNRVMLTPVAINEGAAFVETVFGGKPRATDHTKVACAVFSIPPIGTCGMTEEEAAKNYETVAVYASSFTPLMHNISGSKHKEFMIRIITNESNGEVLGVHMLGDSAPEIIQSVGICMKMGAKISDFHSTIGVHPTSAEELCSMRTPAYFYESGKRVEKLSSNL

Trypanothione reductase [2] = molecular target: T1, Trypanothione reductase; experiment: Inhibition of recombinant Leishmania infantum trypanothione reductase using T[S]2 as substrate preincubated for 5 mins followed by substrate and NADPH addition measured for 1 hr
Proteinase K [3] = molecular target: T2, Proteinase K (Engyodontium album, UniProt P06873); experiment: Drug metabolism assessed as Tritirachium album proteinase K-mediated compound degradation by measuring half life at 100 uM measured up to 360 mins by HPLC method; type: ADME; conditions: parengyodontium album
T2 sequence (P06873 whole entry): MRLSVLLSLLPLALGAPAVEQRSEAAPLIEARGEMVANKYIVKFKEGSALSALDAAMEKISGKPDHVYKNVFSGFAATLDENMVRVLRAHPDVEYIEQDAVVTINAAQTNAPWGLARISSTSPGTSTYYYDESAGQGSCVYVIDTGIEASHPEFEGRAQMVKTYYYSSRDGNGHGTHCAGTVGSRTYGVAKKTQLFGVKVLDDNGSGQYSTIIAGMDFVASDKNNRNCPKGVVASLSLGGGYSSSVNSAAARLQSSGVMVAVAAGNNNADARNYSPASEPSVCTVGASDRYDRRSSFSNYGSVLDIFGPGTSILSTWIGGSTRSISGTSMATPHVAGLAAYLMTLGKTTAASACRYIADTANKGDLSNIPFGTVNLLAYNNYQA

[4] = molecular target: Trypanothione reductase (Leishmania infantum) (UniProt A4HSF7); experiment: Inhibition of dimerization of HIS/FLAG tagged Leishmania infantum trypanothione reductase assessed as dimer levels at 75 uM incubated for 16 hrs by ELISA; set-up: scale not given: the % may be the effect or the level left
Trypanothione reductase (Leishmania infantum), sequence (A4HSF7 as listed by the source): as the sequence (A4HSF7 whole entry) above

[5] = molecular target: Trypanothione reductase (Leishmania infantum) (UniProt A4HSF7); experiment: Inhibition of dimerization of HIS/FLAG tagged Leishmania infantum trypanothione reductase assessed as dimer levels at 9.375 uM incubated for 16 hrs by ELISA; set-up: scale not given: the % may be the effect or the level left
[6] = molecular target: Trypanothione reductase (Leishmania infantum) (UniProt A4HSF7); experiment: Inhibition of dimerization of HIS/FLAG tagged Leishmania infantum trypanothione reductase assessed as dimer levels at 37.5 uM incubated for 16 hrs by ELISA; set-up: scale not given: the % may be the effect or the level left
[7] = molecular target: T3, Glutathione reductase, mitochondrial (Homo sapiens) (UniProt P00390); experiment: Activation of recombinant human glutathione reductase using GSSG as substrate preincubated for 5 mins followed by substrate and NADPH addition
T3 sequence (whole entry): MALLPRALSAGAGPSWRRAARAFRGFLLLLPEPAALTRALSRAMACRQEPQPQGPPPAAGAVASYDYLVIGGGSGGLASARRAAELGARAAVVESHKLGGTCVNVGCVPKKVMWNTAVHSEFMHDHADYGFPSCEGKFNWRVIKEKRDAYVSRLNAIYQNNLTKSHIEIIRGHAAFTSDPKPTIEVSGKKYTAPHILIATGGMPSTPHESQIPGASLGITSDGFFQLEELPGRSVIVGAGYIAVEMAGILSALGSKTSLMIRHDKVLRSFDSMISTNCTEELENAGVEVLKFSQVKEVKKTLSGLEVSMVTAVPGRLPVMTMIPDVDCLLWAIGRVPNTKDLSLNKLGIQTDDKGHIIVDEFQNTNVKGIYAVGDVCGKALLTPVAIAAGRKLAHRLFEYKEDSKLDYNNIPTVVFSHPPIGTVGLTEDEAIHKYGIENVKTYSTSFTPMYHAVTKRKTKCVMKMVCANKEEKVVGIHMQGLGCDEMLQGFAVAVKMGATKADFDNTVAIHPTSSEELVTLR

Leishmania infantum [8] = experiment: Antileishmanial activity against Leishmania infantum MCAN/ES/89/IPZ229/1/89 axenic amastigotes infected in human THP1 cells at 25 uM after 24 hrs by propidium iodide staining based fluorescence microscopic analysis; type: functional, organism-based
Leishmania infantum [9] = experiment: Antileishmanial activity against Leishmania infantum MCAN/ES/89/IPZ229/1/89 promastigotes at 25 uM after 24 hrs by propidium iodide staining based fluorescence microscopic analysis; type: functional, organism-based
[10] = molecular target: Trypanothione reductase (Leishmania infantum) (UniProt A4HSF7); experiment: Inhibition of dimerization of HIS/FLAG tagged Leishmania infantum trypanothione reductase assessed as dimer levels at 18.75 uM incubated for 16 hrs by ELISA; set-up: scale not given: the % may be the effect or the level left
Proteinase K [11] = molecular target: T2, Proteinase K; experiment: Drug metabolism assessed as Tritirachium album proteinase K-mediated compound degradation by measuring half life at 100 uM measured up to 480 mins by HPLC method; type: ADME; conditions: parengyodontium album
THP-1 = experiment: Cytotoxicity against human THP1 cells assessed as reduction in cell viability after 24 hrs by propidium iodide staining based fluorescence microscopic analysis; conditions: THP-1, 24 h
Leishmania infantum [12] = experiment: Antileishmanial activity against Leishmania infantum MCAN/ES/89/IPZ229/1/89 promastigotes after 24 hrs by propidium iodide staining based fluorescence microscopic analysis; type: functional, organism-based; conditions: MCAN/ES/89/IPZ229/1/89, 24 h
Leishmania infantum [13] = experiment: Antileishmanial activity against Leishmania infantum MCAN/ES/89/IPZ229/1/89 axenic amastigotes infected in human THP1 cells after 24 hrs by propidium iodide staining based fluorescence microscopic analysis; type: functional, organism-based; conditions: MCAN/ES/89/IPZ229/1/89, THP-1, 24 h

Row | Structure (SMILES) | IC50 (Trypanothione reductase [2]) [µM] | Activity [4] [%] | Activity [5] [%] | Activity [6] [%] | Activity (Leishmania infantum [8]) | Activity (Leishmania infantum [9]) | Activity [10] [%] | other results
1 | CCCC[C@H](NC(=O)[C@H](CC(C)C)NC(=O)[C@H](CCCC)NC(=O)[C@H](CO)NC(=O)[C@@H](NC(=O)CNC(=O)[C@@H](NC(=O)[C@H](CO)NC(=O)[C@H](CCC(N)=O)NC(=O)[C@@H](NC(=O)[C@@H](NC(=O)[C@H](CC(C)C)NC(=O)[C@@H]1CCCN1C(C)=O)[C@@H](C)CC)[C@@H](C)CC)C(C)C)[C@@H](C)CC)C(N)=O | 1.2 | – | – | – | – | – | – | IC50 (Trypanothione reductase [1]; read-out: IC50): 13.5 µM; half-life at 100 µM (Proteinase K [3]): 0.375 to 0.383 h
2 | CCCC[C@@H](NC(=O)[C@H](CC(C)C)NC(=O)[C@@H](CCCC)NC(=O)[C@H](CO)NC(=O)[C@@H](NC(=O)CNC(=O)C1(C)CCCC=CCCC[C@@](C)(NC(=O)[C@@H](NC(=O)[C@H](CC(C)C)NC(=O)[C@@H]2CCCN2C(C)=O)[C@@H](C)CC)C(=O)N[C@@H](CCC(N)=O)C(=O)N[C@@H](CO)C(=O)N[C@@H](C(C)C)C(=O)N1)[C@@H](C)CC)C(N)=O (some centres undefined) | 6.4 | 168 | 140 | 169 | inactive | inactive | 144 | Activity [7]: Active; half-life at 100 µM (Proteinase K [11]): 3.53 h
3 | CCCC[C@@H](NC(=O)[C@H](CC(C)C)NC(=O)[C@@H](CCCC)NC(=O)[C@H](CO)NC(=O)[C@@H](NC(=O)CNC(=O)[C@@H](NC(=O)[C@H](CO)NC(=O)[C@H](CCC(N)=O)NC(=O)[C@@H](NC(=O)[C@@H](NC(=O)[C@H](CC(C)C)NC(=O)[C@@H]1CCCN1C(C)=O)[C@@H](C)CC)[C@@H](C)CC)C(C)C)[C@@H](C)CC)C(N)=O | – | 2 | 59 | 18 | – | – | 56 | –
4 | C=CCCC[C@@](C)(NC(=O)[C@@H](NC(=O)[C@H](CO)NC(=O)[C@H](CCC(N)=O)NC(=O)[C@@](C)(CCCC=C)NC(=O)[C@@H](NC(=O)[C@H](CCCCN)NC(=O)[C@@H]1CCCN1C(C)=O)[C@@H](C)CC)C(C)C)C(=O)N[C@H](C(=O)N[C@@H](CO)C(=O)NCC(=O)N[C@@H](CCCCN)C(=O)NCC(N)=O)[C@@H](C)CC (Ac-PKI[R5]QSV[R5]ISGKG-NH2) | 12.5 | 184 | 125 | 175 | inactive | inactive | 145 | –
5 | C=CCCC[C@](C)(NC(=O)[C@H](CO)NC(=O)[C@H](CCC(N)=O)NC(=O)[C@@H](NC(=O)[C@](C)(CCCC=C)NC(=O)[C@H](CCCCN)NC(=O)[C@@H]1CCCN1C(C)=O)[C@@H](C)CC)C(=O)NCC(=O)N[C@H](C(=O)N[C@@H](CO)C(=O)N[C@@H](CCCC)C(=O)N[C@@H](CCCCN)C(=O)N[C@@H](CCCC)C(N)=O)[C@@H](C)CC (Ac-PK[S5]IQS[S5]GIS[Nle]K[Nle]-NH2) | 28.2 | – | – | – | inactive | inactive | – | IC50 (Trypanothione reductase [1]): Not Active
6 | CC[C@H](C)[C@H](NC(=O)[C@]1(C)CCCC=CCCC[C@](C)(NC(=O)[C@H](CCCCN)NC(=O)[C@@H]2CCCN2C(=O)[C@H](CCCNC(=N)N)NC(=O)[C@H](CCCNC(=N)N)NC(=O)[C@H](CCCNC(=N)N)NC(=O)[C@H](CCCNC(=N)N)NC(=O)[C@H](CCCNC(=N)N)NC(=O)[C@H](CCCNC(=N)N)NC(=O)[C@H](CCCNC(=N)N)NC(=O)[C@H](CCCNC(=N)N)NC(=O)[C@H](CCCNC(=N)N)NC(C)=O)C(=O)N[C@@H]([C@@H](C)CC)C(=O)N[C@@H](CCC(N)=O)C(=O)N[C@@H](CO)C(=O)NCC(=O)N1)C(=O)N[C@@H](CO)C(=O)NCC(=O)N[C@@H](CC(C)C)C(=O)NCC(N)=O (Ac-RRRRRRRRRPK[S5]IQSG[S5]ISGLG-NH2; staple 12-17) | – | – | – | – | – | – | – | EC50 (THP-1): 0.33 µM; EC50 (Leishmania infantum [12]): 1.95 µM; EC50 (Leishmania infantum [13]): 2.14 µM
7 | CCCC[C@H](NC(=O)[C@H](CC(C)C)NC(=O)[C@H](CCCC)NC(=O)[C@H](CO)NC(=O)[C@@H](NC(=O)CNC(=O)[C@]1(C)CCCC=CCCC[C@@](C)(NC(=O)[C@H](CC(C)C)NC(=O)[C@@H]2CCCN2C(C)=O)C(=O)N[C@@H]([C@@H](C)CC)C(=O)N[C@@H](CCC(N)=O)C(=O)N[C@@H](CO)C(=O)N1)[C@@H](C)CC)C(N)=O (stereo in doubt; 2a) [listing 1 of 2 here] | 6.7 | – | – | – | – | – | – | half-life at 100 µM (Proteinase K [11]): 6.97 h
8 | CCCC[C@H](NC(=O)[C@H](CC(C)C)NC(=O)[C@H](CCCC)NC(=O)[C@H](CO)NC(=O)[C@@H](NC(=O)CNC(=O)[C@]1(C)CCCC=CCCC[C@@](C)(NC(=O)[C@H](CC(C)C)NC(=O)[C@@H]2CCCN2C(C)=O)C(=O)N[C@@H]([C@@H](C)CC)C(=O)N[C@@H](CCC(N)=O)C(=O)N[C@@H](CO)C(=O)N1)[C@@H](C)CC)C(N)=O (stereo in doubt; 2a) [listing 2 of 2 here] | – | 181 | 114 | 153 | inactive | inactive | 130 | Activity [7]: Active
9 | CCCC[C@H](NC(=O)[C@H](CC(C)C)NC(=O)[C@H](CCCC)NC(=O)[C@H](CO)NC(=O)[C@@H](NC(=O)CNC(=O)[C@]1(C)CCCC=CCCC[C@@](C)(NC(=O)[C@H](CC(C)C)NC(=O)[C@@H]2CCCN2C(C)=O)C(=O)N[C@@H]([C@@H](C)CC)C(=O)N[C@@H](CCC(N)=O)C(=O)N[C@@H](CO)C(=O)N1)[C@@H](C)CC)C(N)=O (stereo in doubt; 2b) | > 25 | – | – | – | – | – | – | IC50 (Trypanothione reductase [1]): Not Active
10 | CC[C@H](C)[C@H](NC(=O)[C@]1(C)CCCC=CCCC[C@](C)(NC(=O)[C@H](CCCCN)NC(=O)[C@@H]2CCCN2C(=O)COCCOCCNC(=S)Nc2ccc(C(=O)O)c(-c3c4ccc(=O)cc-4oc4cc(O)ccc34)c2)C(=O)N[C@@H]([C@@H](C)CC)C(=O)N[C@@H](CCC(N)=O)C(=O)N[C@@H](CO)C(=O)NCC(=O)N1)C(=O)N[C@@H](CO)C(=O)NCC(=O)N[C@@H](CC(C)C)C(=O)NCC(N)=O ({X1-AEEA}-PK[S5]IQSG[S5]ISGLG-NH2; staple 3-8) | – | – | – | – | inactive | inactive | – | –
11 | CCCCCCCCCCCCCCCCCCOCC(COP(=O)([O-])OCC[N+](C)(C)C)OC (centres undefined) [EDELFOSINE] | – | – | – | – | – | – | – | EC50 (THP-1): 1 µM; EC50 (Leishmania infantum [12]): 9 µM; EC50 (Leishmania infantum [13]): 0.6 µM
12 | CCCCCCCCCCCCCCCCOP(=O)([O-])OCC[N+](C)(C)C [MILTEFOSINE] | – | – | – | – | – | – | – | EC50 (THP-1): 19 µM; EC50 (Leishmania infantum [12]): 47.6 µM; EC50 (Leishmania infantum [13]): 2 µM
